{"source": "patent US20260207624A1", "about": "“COADMINISTRATION OF ESTROGEN WITH ESTROGEN RECEPTOR MODULATOR OR DEGRADER OR ER TARGETED PROTAC FOR THE TREATMENT OF ESTROGEN RESPONSIVE CANCERS” (Duke University, priority 2022, published 2026)", "key": {"ER": {"biological_target": "T1, ER (Homo sapiens, UniProt P03372)", "T1 construct": "SERDs differ in the efficacy of ER downregulation in breast cancer cell lines; endogenous in cells; host or cells: MCF7, BT483, T47D, ZR751, CAMA1", "T1 sequence (P03372 1-595)": "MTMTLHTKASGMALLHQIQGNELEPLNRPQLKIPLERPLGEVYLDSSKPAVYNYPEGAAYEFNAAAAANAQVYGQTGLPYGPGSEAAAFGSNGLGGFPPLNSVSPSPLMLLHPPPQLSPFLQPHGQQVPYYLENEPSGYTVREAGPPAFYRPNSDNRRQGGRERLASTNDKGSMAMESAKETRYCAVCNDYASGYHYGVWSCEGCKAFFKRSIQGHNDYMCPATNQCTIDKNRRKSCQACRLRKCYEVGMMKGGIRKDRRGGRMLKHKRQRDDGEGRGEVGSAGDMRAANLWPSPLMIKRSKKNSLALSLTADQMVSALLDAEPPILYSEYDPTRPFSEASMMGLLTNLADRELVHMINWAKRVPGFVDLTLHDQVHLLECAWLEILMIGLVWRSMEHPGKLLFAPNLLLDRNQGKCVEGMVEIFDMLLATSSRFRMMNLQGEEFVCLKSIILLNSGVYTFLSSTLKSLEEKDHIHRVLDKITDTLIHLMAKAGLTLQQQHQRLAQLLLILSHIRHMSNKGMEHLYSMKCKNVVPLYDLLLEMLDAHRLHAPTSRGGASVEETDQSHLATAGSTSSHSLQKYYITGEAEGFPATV", "assay": "ER downregulation in breast cancer cell lines by in-cell western", "format": "cell-based", "conditions": "MCF7, BT483, T47D, ZR751, CAMA1 cells, 24 hours after treatment", "experimental": "FIGS. 8A-8B. SERDs differ in the efficacy of ER downregulation in breast cancer cell lines. Breast cancer cells, including MCF7, BT483, T47D, ZR751, and CAMA1, were plated in phenol red free media supplemented with charcoal stripped FBS prior to treatment in triplicate wells with the indicated SERMs or SERDs (10-11-10-5 M final concentration). 24 hours after treatment, cells were fixed to the plates, and ER levels were analyzed by in-cell western using a fluorophore conjugated secondary antibody. Average detected ER levels were normalized to well DNA content using DRAQ5 staining. Relative ER turnover was calculated as a ratio of normalized ER levels detected in treated wells to untreated wells. Data were representative of at least 3 independent experiments. Data for each cell line were graphed in 2 panels to categorize SERDs by chemical properties, separating basic SERDs (FIG. 8A) and those having carboxylic acid group(s) (FIG. 8B). Serm-like SERDs bazedoxifene and elacestrant were also presented in (FIG. 8A) for reference. Fulvestrant was included on both graphs for all cell lines to facilitate comparison."}, "Breast cancer cells": {"test_system": "Breast cancer cells", "assay": "Anti-proliferative activity in breast cancer cell lines (DNA content, Hoechst staining)", "format": "cell-based", "conditions": "with estradiol 0.1 nM, 7 days after treatment", "experimental": "FIGS. 9A-9C. Anti-proliferative activities of SERDs in select breast cancer cell lines differ primarily in potency. Breast cancer cells were plated in phenol red free media supplemented with charcoal stripped FBS prior to treatment in triplicate wells with the indicated SERMs and SERM-like SERDs (FIG. 9A), acidic SERDs (FIG. 9B), basic SERDs (FIG. 9C) at 10^-12 to 10^-5 M final concentration, followed by addition of estradiol (E2, 0.1 nM) or insulin (2 nM, MCF7 cell line only, bottom panels). 7 days after treatment, plates were harvested and DNA quantitated using fluorescence following Hoechst staining. Average detected fluorescence was normalized to wells receiving no ligand treatment, and relative change in DNA fluorescence was calculated compared to wells treated only with E2. Data are representative of at least 3 independent experiments."}}, "data": [{"smiles": "CCNCCc1ccc(CN(CC)c2cc(OC)ccc2[C@@H]2CCc3cc(O)ccc3C2)cc1", "note": "[elacestrant]", "values": [{"measurement": "ER downregulation / ER degradation", "setting": "ER", "result": "generally the least efficient SERD"}, {"measurement": "inhibition of cellular proliferation", "setting": "Breast cancer cells", "result": "efficacy similar to that observed for other SERDs"}]}]}
